Laboratory results published in EP4707280A1, “1,4-CINEOLE DERIVATIVE AND INTERMEDIATE THEREOF, HERBICIDE CONTAINING SAID DERIVATIVE AS ACTIVE INGREDIENT, METHOD FOR USING HERBICIDE, AND METHOD FOR PREPARING AGROCHEMICAL COMPOSITION” (HOKKO CHEMICAL INDUSTRY CO., LTD., priority 2023, dated 2024).

Key:
Assay type in all cases: in vivo
[1] = test system: Echinochloa crus-galli var. formosensis; test: Test Example 2: herbicidal effect test by application during growth period of paddy rice; settings: Echinochloa crus-galli; 120 g per 10 ares; applied seven days after sowing, flooded pots; 14 days after application; read-out: weed inhibition rate
Procedure, shortened: (§1)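 Greenhouse pots of flooded paddy soil, seeded shallowly with 30 seeds per weed, are treated on day 7 by dropper with diluted emulsifiable concentrate equal to 120 g a.i./10 a. Duplicate pots are scored for inhibition rate 14 days post-application.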

Scirpus juncoides [2] = test: as above; settings: Schoenoplectiella juncoides; 120 g per 10 ares; applied seven days after sowing, flooded pots; 14 days after application; read-out: weed inhibition rate
Procedure, shortened: as §1

Echinochloa crus-galli [3] = test: Test Example 3: herbicidal effect test by soil application in upland field; settings: Echinochloa crus-galli, 120 g per 10 ares, sprayed one day after sowing, 14 days after application, read-out: weed inhibition rate
Procedure, shortened: (§2)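 Weed inhibition (%) was assessed 14 days after treatment, in duplicate per concentration group. Seeds had been mixed into the upper 1 cm of upland alluvial loam, and the soil surface was sprayed one day later with the diluted emulsifiable concentrate at 120 g active ingredient per 10 ares.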

Digitaria ciliaris [4] = test: as above; settings: Digitaria ciliaris, 120 g per 10 ares, sprayed one day after sowing, 14 days after application, read-out: weed inhibition rate
Procedure, shortened: as §2

Echinochloa crus-galli [5] = test: Test Example 7: herbicidal effect test by soil application in upland field (low dose); settings: Echinochloa crus-galli, 7.5 g per 10 ares, sprayed one day after sowing, 14 days after application, read-out: weed inhibition rate
Procedure, shortened: (§3)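 Duplicate pots of alluvial loam, seeds incorporated in the surface 1 cm. Soil surface sprayed 1 d after sowing (EC in water, 100 L/10 a; 7.5 g a.i./10 a). Endpoint: % inhibition, day 14.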

Digitaria ciliaris [6] = test: as above; settings: Digitaria ciliaris, 7.5 g per 10 ares, sprayed one day after sowing, 14 days after application, read-out: weed inhibition rate
Procedure, shortened: as §3

[7] = test system: Echinochloa crus-galli var. formosensis; test: Test Example 6: herbicidal effect test by application during growth period of paddy rice (low dose); settings: Echinochloa crus-galli; 7.5 g per 10 ares; applied seven days after sowing, flooded pots; 14 days after application; read-out: weed inhibition rate
Procedure, shortened: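 Emulsifiable concentrate, water-diluted, dropped onto flooded paddy pots 7 days post-sowing at 7.5 g active ingredient/10 a. Greenhouse-grown weeds; percent inhibition scored at day 14 after treatment.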

Echinochloa crus-galli [8] = test: Test Example 4: herbicidal effect test by stem and leaf treatment in upland field; settings: Echinochloa crus-galli; 120 g per 10 ares; sprayed seven days after sowing, upland soil; 14 days after application; read-out: weed inhibition rate
Digitaria ciliaris [9] = test: as above; settings: Digitaria ciliaris; 120 g per 10 ares; sprayed seven days after sowing, upland soil; 14 days after application; read-out: weed inhibition rate
Echinochloa crus-galli [10] = test: Test Example 8: herbicidal effect test by stem and leaf treatment in upland field (low dose); settings: Echinochloa crus-galli; 7.5 g per 10 ares; sprayed seven days after sowing, upland soil; 14 days after application; read-out: weed inhibition rate
Digitaria ciliaris [11] = test: as above; settings: Digitaria ciliaris; 7.5 g per 10 ares; sprayed seven days after sowing, upland soil; 14 days after application; read-out: weed inhibition rate
[12] = test system: Echinochloa crus-galli var. formosensis; test: Test Example 5: herbicidal effect test by soil application in paddy rice (low dose); settings: Echinochloa crus-galli, soil, 336 h; 7.5 g per 10 ares; applied immediately after sowing, flooded pots; 14 days after application; read-out: weed inhibition rate
Procedure, shortened: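 7.5 g a.i./10 a applied by dropper into ~3 cm floodwater immediately post-sowing (seeds 0–1 cm, 30 per species; puddled fertilized paddy soil, glasshouse). Duplicates; day-14 inhibition %.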

[13] = test system: Echinochloa crus-galli var. formosensis; test: Test Example 1: herbicidal effect test by soil application in paddy rice; settings: Echinochloa crus-galli, soil, 336 h; 120 g active ingredient per 10 ares; applied immediately after sowing, flooded pots; 14 days after application; read-out: weed inhibition rate
Procedure, shortened: (§4)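 Flooded-pot paddy assay: sow at 0–1 cm, flood to about 3 cm, then apply diluted emulsifiable concentrate by dropper, 120 g a.i. per 10 ares; greenhouse-grown.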

Scirpus juncoides [14] = test: as above; settings: Schoenoplectiella juncoides, soil, 336 h; 120 g active ingredient per 10 ares; applied immediately after sowing, flooded pots; 14 days after application; read-out: weed inhibition rate
Procedure, shortened: as §4

CC(C)C12CC(OCc3ccccc3)C(C)(CC1Br)O2 (stereo not shown) [1-1342, 5-bromo-1-methyl-2-phenylmethoxy-4-isopropyl-7-oxabicyclo[2.2.1]heptane]
≥ 80%: inhibition at 1200 g/ha [1] | inhibition at 1200 g/ha (Scirpus juncoides [2]) | inhibition at 1200 g/ha (Echinochloa crus-galli [3]) | inhibition at 1200 g/ha (Digitaria ciliaris [4]) | inhibition at 75 g/ha (Echinochloa crus-galli [5]) | inhibition at 75 g/ha (Digitaria ciliaris [6]) | inhibition at 75 g/ha [7] | inhibition at 1200 g/ha (Echinochloa crus-galli [8]) | inhibition at 1200 g/ha (Digitaria ciliaris [9]) | inhibition at 75 g/ha (Echinochloa crus-galli [10]) | inhibition at 75 g/ha (Digitaria ciliaris [11]) | inhibition at 75 g/ha [12] | pest or weed control at 1200 g/ha [13] | pest or weed control at 1200 g/ha (Scirpus juncoides [14])

CC(C)C12CC(OCc3ccccn3)C(C)(CC1Br)O2 (stereo not shown) [1-1386, 2-[(5-bromo-1-methyl-4-isopropyl-7-oxabicyclo[2.2.1]heptan-2-yl)oxymethyl]pyridine]
≥ 80%: inhibition at 1200 g/ha [1] | inhibition at 1200 g/ha (Scirpus juncoides [2]) | inhibition at 1200 g/ha (Echinochloa crus-galli [3]) | inhibition at 1200 g/ha (Digitaria ciliaris [4]) | inhibition at 75 g/ha (Echinochloa crus-galli [5]) | inhibition at 75 g/ha (Digitaria ciliaris [6]) | inhibition at 75 g/ha [7] | inhibition at 1200 g/ha (Echinochloa crus-galli [8]) | inhibition at 1200 g/ha (Digitaria ciliaris [9]) | inhibition at 75 g/ha (Echinochloa crus-galli [10]) | inhibition at 75 g/ha (Digitaria ciliaris [11]) | inhibition at 75 g/ha [12] | pest or weed control at 1200 g/ha [13] | pest or weed control at 1200 g/ha (Scirpus juncoides [14])

CC(C)C12CC(OCc3cccs3)C(C)(CC1Br)O2 (stereo not shown) [1-1389, 5-bromo-1-methyl-4-isopropyl-2-(thiophen-2-ylmethoxy)-7-oxabicyclo[2.2.1]heptane]
≥ 80%: inhibition at 1200 g/ha [1] | inhibition at 1200 g/ha (Scirpus juncoides [2]) | inhibition at 1200 g/ha (Echinochloa crus-galli [3]) | inhibition at 1200 g/ha (Digitaria ciliaris [4]) | inhibition at 75 g/ha (Echinochloa crus-galli [5]) | inhibition at 75 g/ha (Digitaria ciliaris [6]) | inhibition at 75 g/ha [7] | inhibition at 1200 g/ha (Echinochloa crus-galli [8]) | inhibition at 1200 g/ha (Digitaria ciliaris [9]) | inhibition at 75 g/ha (Echinochloa crus-galli [10]) | inhibition at 75 g/ha (Digitaria ciliaris [11]) | inhibition at 75 g/ha [12] | pest or weed control at 1200 g/ha [13] | pest or weed control at 1200 g/ha (Scirpus juncoides [14])

CC(C)=CCOC1CC2(C(C)C)OC1(C)CC2I (stereo not shown) [1-1400, 5-iodo-1-methyl-2-(3-methylbut-2-enoxy)-4-isopropyl-7-oxabicyclo[2.2.1]heptane]
≥ 80%: inhibition at 1200 g/ha [1] | inhibition at 1200 g/ha (Scirpus juncoides [2]) | inhibition at 1200 g/ha (Echinochloa crus-galli [3]) | inhibition at 1200 g/ha (Digitaria ciliaris [4]) | inhibition at 75 g/ha (Echinochloa crus-galli [5]) | inhibition at 75 g/ha (Digitaria ciliaris [6]) | inhibition at 75 g/ha [7] | inhibition at 1200 g/ha (Echinochloa crus-galli [8]) | inhibition at 1200 g/ha (Digitaria ciliaris [9]) | inhibition at 75 g/ha (Echinochloa crus-galli [10]) | inhibition at 75 g/ha (Digitaria ciliaris [11]) | inhibition at 75 g/ha [12] | pest or weed control at 1200 g/ha [13] | pest or weed control at 1200 g/ha (Scirpus juncoides [14])

CC#CCOC1CC2(C(C)C)OC1(C)CC2I (stereo not shown) [1-1402, 5-but-2-ynoxy-2-iodo-1-isopropyl-4-methyl-7-oxabicyclo[2.2.1]heptane]
≥ 80%: inhibition at 1200 g/ha [1] | inhibition at 1200 g/ha (Scirpus juncoides [2]) | inhibition at 1200 g/ha (Echinochloa crus-galli [3]) | inhibition at 1200 g/ha (Digitaria ciliaris [4]) | inhibition at 75 g/ha (Echinochloa crus-galli [5]) | inhibition at 75 g/ha (Digitaria ciliaris [6]) | inhibition at 75 g/ha [7] | inhibition at 1200 g/ha (Echinochloa crus-galli [8]) | inhibition at 1200 g/ha (Digitaria ciliaris [9]) | inhibition at 75 g/ha (Echinochloa crus-galli [10]) | inhibition at 75 g/ha (Digitaria ciliaris [11]) | inhibition at 75 g/ha [12] | pest or weed control at 1200 g/ha [13] | pest or weed control at 1200 g/ha (Scirpus juncoides [14])

CC(C)C12CC(OCc3ccccc3)C(C)(CC1I)O2 (stereo not shown) [1-1408, 5-iodo-1-methyl-2-phenylmethoxy-4-isopropyl-7-oxabicyclo[2.2.1]heptane]
≥ 80%: inhibition at 1200 g/ha [1] | inhibition at 1200 g/ha (Scirpus juncoides [2]) | inhibition at 1200 g/ha (Echinochloa crus-galli [3]) | inhibition at 1200 g/ha (Digitaria ciliaris [4]) | inhibition at 75 g/ha (Echinochloa crus-galli [5]) | inhibition at 75 g/ha (Digitaria ciliaris [6]) | inhibition at 75 g/ha [7] | inhibition at 1200 g/ha (Echinochloa crus-galli [8]) | inhibition at 1200 g/ha (Digitaria ciliaris [9]) | inhibition at 75 g/ha (Echinochloa crus-galli [10]) | inhibition at 75 g/ha (Digitaria ciliaris [11]) | inhibition at 75 g/ha [12] | pest or weed control at 1200 g/ha [13] | pest or weed control at 1200 g/ha (Scirpus juncoides [14])

Cc1ccccc1COC1CC2(C(C)C)OC1(C)CC2I (stereo not shown) [1-1409, 5-iodo-1-methyl-2-[(2-methylphenyl)methoxy]-4-isopropyl-7-oxabicyclo[2.2.1]heptane]
≥ 80%: inhibition at 1200 g/ha [1] | inhibition at 1200 g/ha (Scirpus juncoides [2]) | inhibition at 1200 g/ha (Echinochloa crus-galli [3]) | inhibition at 1200 g/ha (Digitaria ciliaris [4]) | inhibition at 75 g/ha (Echinochloa crus-galli [5]) | inhibition at 75 g/ha (Digitaria ciliaris [6]) | inhibition at 75 g/ha [7] | inhibition at 1200 g/ha (Echinochloa crus-galli [8]) | inhibition at 1200 g/ha (Digitaria ciliaris [9]) | inhibition at 75 g/ha (Echinochloa crus-galli [10]) | inhibition at 75 g/ha (Digitaria ciliaris [11]) | inhibition at 75 g/ha [12] | pest or weed control at 1200 g/ha [13] | pest or weed control at 1200 g/ha (Scirpus juncoides [14])

COc1ccccc1COC1CC2(C(C)C)OC1(C)CC2I (stereo not shown) [1-1415, 5-iodo-2-[(2-methoxyphenyl)methoxy]-1-methyl-4-isopropyl-7-oxabicyclo[2.2.1]heptane]
≥ 80%: inhibition at 1200 g/ha [1] | inhibition at 1200 g/ha (Scirpus juncoides [2]) | inhibition at 1200 g/ha (Echinochloa crus-galli [3]) | inhibition at 1200 g/ha (Digitaria ciliaris [4]) | inhibition at 75 g/ha (Echinochloa crus-galli [5]) | inhibition at 75 g/ha (Digitaria ciliaris [6]) | inhibition at 75 g/ha [7] | inhibition at 1200 g/ha (Echinochloa crus-galli [8]) | inhibition at 1200 g/ha (Digitaria ciliaris [9]) | inhibition at 75 g/ha (Echinochloa crus-galli [10]) | inhibition at 75 g/ha (Digitaria ciliaris [11]) | inhibition at 75 g/ha [12] | pest or weed control at 1200 g/ha [13] | pest or weed control at 1200 g/ha (Scirpus juncoides [14])
